{"source": "patent US11026910B2", "about": "“α- and γ-truxillic acid derivatives and pharmaceutical compositions thereof” (The Research Foundation for The State University of New York, priority 2012, dated 2021)", "key": {"[1]": {"target": "T1, FABP5 (Homo sapiens, UniProt Q01469)", "T1 construct": "made in house", "T1 sequence (Q01469 whole entry, species assumed)": "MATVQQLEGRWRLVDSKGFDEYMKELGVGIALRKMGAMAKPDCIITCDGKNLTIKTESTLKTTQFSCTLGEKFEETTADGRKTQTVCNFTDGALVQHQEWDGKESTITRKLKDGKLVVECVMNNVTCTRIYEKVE", "test": "High throughput fluorescence displacement assay with NBD-stearate", "assay_type": "binding", "conditions": "stated in words only", "protocol": "FABP5 (30 μg), NBD-stearate (1 μM), and a competitor test compound were incubated in 30 mM Tris-HCl, 100 mM NaCl buffer (pH 7.6). […] The initial assay was run with buffer (30 mM Tris-HCl buffer), negative controls (buffer and NBD-stearate), positive controls (buffer, NBD-stearate, FABP5), and experimental wells with a variable test compound added (arachidonic acid or one of the 48 test compounds) at 10 μM. […] The Kd of NBD-stearate for FABP5 had been determined previously through incubating FABP5 with increasing concentrations of NBD-stearate."}, "[2]": {"system": "male C57Bl6 mice", "test": "Carrageenan-induced paw edema and thermal hyperalgesia", "assay_type": "in vivo", "conditions": "20 mg/kg, i.p. (FIG. 16A)", "protocol": "(§1) We used male C57Bl6 mice (22-30 g, Taconic Farms) for all experiments. The animals were group housed at room temperature and kept on a 12:12 hour light:dark cycle with ad libitum access to water and food. The animals were habituated to the experimental room for one week before testing. All experiments were approved by the Stony Brook University Institutional Animal Care and Use Committee. The experimenter was blinded to the treatment conditions of each animal.\nPaw edema was induced by injecting 1% λ-carrageenan (20 μl, in sterile saline) into the plantar surface of the left hind paw and a control solution of saline into the right hind paw using a 27 gauge needle. Paw diameters were measured before carrageenan injection and 4 hours after injection using digital electronic calipers (Fisher) and expressed to the nearest ±0.01 mm. […] The cannabinoid receptor antagonists, rimonabant and SR144528 (3 mg/kg, i.p.), in ethanol:emulphor:saline (1:1:18), were injected 15 min before the FABP inhibitor. Edema is reported as the change in paw diameter at 4 hr over the baseline. Changes in paw diameter of saline-injected contralateral paws were negligible. Thermal hyperalgesia measured the latency to withdraw the paw from a focused beam of radiant heat applied to the plantar surface of the hind paw using a Hargreaves plantar apparatus (Ugo Basile) set at an intensity of 3.0. For each mouse, the average latencies consisted of three trials spaced at least 5 minutes apart. The mice were habituated to the test chamber for 30 min. The cutoff time was set at 30 sec.\n(§2) Behavioral data are presented as means±S.E.M. for the vehicle and inhibitor-treated groups, each consisting of at least 6 animals. Statistical significance between vehicle and inhibitor groups was determined using unpaired t-tests or one-way ANOVA followed by Dunnett's post hoc analysis. In all cases, differences of p<0.05 were considered significant."}, "[3]": {"system": "male C57Bl6 mice", "test": "Formalin test", "assay_type": "in vivo", "protocol": "as §1\nMice were habituated to the observation chamber (Plexiglas box, 25 cm×25 cm×25 cm) for 30 min prior to formalin injection. The mice subsequently received an injection of formalin (2.5% in saline, 20 μl) into the plantar surface of the right hind paw using a 27 gauge needle. The animals were immediately placed back into the observation, chamber and nocifensive behavior (time spent licking or biting the paw) was recorded for 60 min. The formalin test consists of two phases with the first phase (0-5 min) reflecting nociceptor activation and the second phase (15-45 min) reflecting an inflammatory pain response.\nas §2"}, "[4]": {"conditions": "literature; cited from earlier work"}, "[5]": {"target": "FABP4 (Homo sapiens, UniProt P15090)", "sequence (P15090 whole entry, species assumed)": "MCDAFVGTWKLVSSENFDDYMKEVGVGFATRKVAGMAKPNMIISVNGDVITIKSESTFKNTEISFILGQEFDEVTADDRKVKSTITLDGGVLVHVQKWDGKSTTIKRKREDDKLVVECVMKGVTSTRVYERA", "conditions": "McDonnell 2006; read-out: Ki against FABP4 (1,8-ANS displacement); cited from earlier work"}, "[6]": {"target": "T1, FABP5", "conditions": "cited from earlier work"}, "[7]": {"target": "FABP7 (Homo sapiens, UniProt O15540)", "sequence (O15540 whole entry, species assumed)": "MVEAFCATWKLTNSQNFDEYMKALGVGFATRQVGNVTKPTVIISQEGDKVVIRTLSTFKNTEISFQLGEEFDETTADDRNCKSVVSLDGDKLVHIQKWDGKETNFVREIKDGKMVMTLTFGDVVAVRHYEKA", "conditions": "natural substrate; read-out: Ki against FABP7; cited from earlier work"}, "[8]": {"system": "male C57Bl6 mice", "conditions": "literature SAR study (Chi 2005); cited from earlier work"}}, "data": [{"smiles": "O=C(O)[C@H]1[C@H](c2ccccc2)[C@H](C(=O)Nc2cccc3ccccc23)[C@H]1c1ccccc1", "note": "(stereo in doubt) [Compound 53, 3-(naphthalen-1-ylcarbamoyl)-2,4-diphenylcyclobutanecarboxylic Acid]", "values": [{"measurement": "FABP inhibition activity", "setting": "[1]", "result": "analogous FABP inhibition activity to Compound 26"}]}, {"smiles": "O=C(O)[C@H]1[C@H](c2ccccc2)[C@H](C(=O)Oc2ccc3ccccc3c2)[C@H]1c1ccccc1", "note": "(stereo in doubt) [Compound 54, 3-((naphthalen-2-yloxy)carbonyl)-2,4-diphenylcyclobutanecarboxylic Acid]", "values": [{"measurement": "carrageenan-induced paw edema, 24 hrs after inhibitor administration", "setting": "[2]", "result": "reduced"}, {"measurement": "carrageenan-induced thermal hyperalgesia, 24 hrs after inhibitor administration", "setting": "[2]", "result": "reduced"}, {"measurement": "FABP inhibition activity", "setting": "[1]", "result": "analogous FABP inhibition activity to Compound 26"}, {"measurement": "first phase of formalin-induced nociception", "setting": "[3]; FIG. 16B", "result": "reduce"}, {"measurement": "second phase of formalin-induced nociception", "setting": "[3]; FIG. 16B", "result": "reduce"}]}, {"smiles": "COc1cc([C@H]2[C@H](C(=O)O[C@@H]3C[C@@H]4[C@@H](CN(C)C[C@@H]4C)[C@@H]3C)[C@H](c3ccc(O)c(OC)c3)[C@H]2C(=O)O[C@@H]2C[C@@H]3[C@@H](CN(C)C[C@@H]3C)[C@@H]2C)ccc1O", "note": "[(−)-incarvillateine]", "values": [{"measurement": "antinociceptive properties", "setting": "[4]", "result": "antinociceptive properties on the same level as morphine"}]}, {"smiles": "O=C(O)[C@@H](O)c1cccc(OCc2ccccc2Cl)c1OCc1ccccc1Cl", "note": "[BMS480404]", "values": [{"measurement": "Ki", "setting": "[5]", "result": 0.0025, "unit": "µM"}]}, {"smiles": "O=C(O)C1C(c2ccccc2)C(C(=O)Oc2cccc3ccccc23)C1c1ccccc1", "note": "(stereo not shown) [Compound 49, γ-2,4-diphenyl-cyclobutane-1,3-dicarboxylic Acid mono-(1-napthyl) Ester]", "values": [{"measurement": "results in formalin induced mice models", "setting": "[3]; mouse, in vivo", "result": "excellent results"}]}, {"smiles": "CCCCCCC(CCCCCCCCCCC(=O)O)N(C)c1ccc([N+](=O)[O-])c2nonc12", "note": "(stereo not shown) [NBD-stearate, 12-N-methyl-(7-nitrobenz-2-oxa-1,3-diazo) aminostearic acid]", "values": [{"measurement": "Kd", "setting": "[6]; one site binding analysis, determined previously (Kaczocha 2012), read-out: Kd of NBD-stearate for FABP5", "result": 0.16, "unit": "µM"}]}, {"smiles": "CCCCC/C=C\\C/C=C\\C/C=C\\C/C=C\\CCCC(=O)O", "note": "[arachidonic acid]", "values": [{"measurement": "Ki", "setting": "[6]; published value, read-out: Ki against FABP5, published / previously determined", "result": 0.13, "unit": "µM"}]}, {"smiles": "CCCCCCCC/C=C\\CCCCCCCC(=O)O", "note": "[oleic acid]", "values": [{"measurement": "Ki", "setting": "[7]", "result": 0.35, "unit": "µM"}]}, {"smiles": "O=C(O)C1C(c2ccccc2)C(C(=O)O)C1c1ccccc1", "note": "(stereo not drawn) [α-truxillic acid, α-2,4-diphenyl-cyclobutane-1,3-dicarboxylic Acid]", "values": [{"measurement": "antinociception in early and late stage pain, formalin induced mouse models", "setting": "[8]", "result": "best antinociceptive agent in both early and late stage pain"}]}]}
